Results reported in ChEMBL document CHEMBL5726510, “MK2 inhibitors and uses thereof” (2017).

Target: MAP kinase-activated protein kinase 2 (Homo sapiens, UniProt P49137)
Assay: Mass Spectrometry Assay: Compounds I-1 through I-50 of the invention were assayed in a mass spectrometric assay to measure their ability to covalently modify MK2 protein. The procedure for this assay follows. Intact MK2 protein (Invitrogen, Cat. No. PR5320A) was incubated for 60 minutes at room temperature with a 10-fold excess of test compound to protein. Aliquots of the resulting mixture (6 μL …

MAP kinase-activated protein kinase 2, sequence (P49137 whole entry): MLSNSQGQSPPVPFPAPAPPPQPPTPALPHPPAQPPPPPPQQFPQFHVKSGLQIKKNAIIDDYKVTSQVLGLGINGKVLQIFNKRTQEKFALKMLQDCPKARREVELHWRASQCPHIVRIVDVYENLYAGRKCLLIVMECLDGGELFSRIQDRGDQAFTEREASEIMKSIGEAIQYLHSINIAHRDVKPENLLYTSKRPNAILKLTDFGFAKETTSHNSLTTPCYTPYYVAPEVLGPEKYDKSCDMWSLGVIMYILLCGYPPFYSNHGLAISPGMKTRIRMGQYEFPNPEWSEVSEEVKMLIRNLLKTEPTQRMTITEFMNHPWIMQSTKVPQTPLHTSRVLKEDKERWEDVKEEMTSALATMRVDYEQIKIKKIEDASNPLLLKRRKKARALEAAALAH

In the case of C[C@@H]1CNc2c(sc3ccc4nc(Nc5nccc(Cl)n5)ccc4c23)C(=O)N1, the IC50 is reported as over 1 µM.

CN(C)C[C@@H]1CNc2c(sc3ccc4nc(Nc5cc(F)ncn5)ccc4c23)C(=O)N1 gave an IC50 of over 1 µM.

Compound C[C@@H]1CNc2c(sc3ccc4nc(Nc5nc(Cl)ncc5C(=O)NC5COC5)ccc4c23)C(=O)N1 has an IC50 of under 0.1 µM.

Work on C[C@@H]1CNc2c(sc3ccc4nc(Oc5cc(CNC(C)(C)C)nc(Cl)n5)ccc4c23)C(=O)N1 yielded an IC50 of under 0.1 µM.

C[C@@H]1CNc2c(sc3ccc4nc(Nc5nc(Cl)ncc5C(=O)NC5CCN(C)CC5)ccc4c23)C(=O)N1 gave an IC50 of under 0.1 µM.

Work on C[C@@H]1CNc2c(sc3ccc4nc(Nc5nc(Cl)ncc5C(=O)NC5CC5)ccc4c23)C(=O)N1 yielded an IC50 of under 0.1 µM.
